Laboratory results taken from patent US9562053B2, “Benzo-fused heterocyclic derivatives useful as agonists of GPR120” (Janssen Pharmaceutica NV, priority 2013, dated 2017).

target: T1, short form of the GPR120 receptor (Homo sapiens, UniProt Q5NUL3); assay: Human GPR120 DiscoveRx PathHunter Beta-Arrestin Assay, Procedure β-arrestin B (5000 cells/well); format: cell-based
T1 construct: host or cells: PathHunter CHO-K1 GPR120S β-Arrestin Cell Line
T1 sequence (Q5NUL3 1-361): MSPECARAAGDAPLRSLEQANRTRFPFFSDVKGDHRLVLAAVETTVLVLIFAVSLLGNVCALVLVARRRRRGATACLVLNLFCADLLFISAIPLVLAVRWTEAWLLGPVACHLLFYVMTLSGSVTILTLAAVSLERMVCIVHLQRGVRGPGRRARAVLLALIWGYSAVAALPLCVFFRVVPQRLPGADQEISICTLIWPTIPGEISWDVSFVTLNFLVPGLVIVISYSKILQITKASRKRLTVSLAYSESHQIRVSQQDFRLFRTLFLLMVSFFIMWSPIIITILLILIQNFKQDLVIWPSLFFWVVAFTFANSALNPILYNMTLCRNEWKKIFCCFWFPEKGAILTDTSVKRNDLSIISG
Outline: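 PathHunter CHO-K1 cells expressing short-form GPR120 (NM_181745), seeded at 5000 cells/well, were exposed to compound for 90 min at 37 °C in HBSS/20 mM HEPES/0.1% BSA, pH 7.4. Dilutions ran 25–0.012 µM before addition to wells. β-arrestin recruitment was read by EFC β-gal luminescence, and EC50 was fitted to % activity versus positive control with Hill slope fixed at 1.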

SMILES | EC50
CCc1cc2cc(Cl)cc(COc3ccc(CCC(=O)O)c(C)c3C)c2o1 [Compound 11, 3-{4-[(5-Chloro-2-ethyl-1-benzofuran-7-yl)methoxy]-2,3-dimethylphenyl}propanoic acid] | 94 nM
CCc1cc2cc(OC(F)(F)F)cc(COc3ccc(CCC(=O)O)c(C)c3C)c2o1 [Compound 12, 3-(4-{[2-Ethyl-5-(trifluoromethoxy)-1-benzofuran-7-yl]methoxy}-2,3-dimethylphenyl)propanoic acid] | 70 nM
Cc1cc2cc(OC(F)(F)F)cc(COc3ccc(CCC(=O)O)c(C)c3C)c2o1 [Compound 36, 3-(2,3-Dimethyl-4-{[2-methyl-5-(trifluoromethoxy)-1-benzofuran-7-yl]methoxy}phenyl)propanoic acid] | 69 nM

Second part, the molecule after the results:

EC50 | SMILES
1290 nM | CCc1cc2ccc(OC(F)F)c(COc3ccc(CCC(=O)O)c(C)c3C)c2o1 [Compound 70, 3-(4-{[6-(Difluoromethoxy)-2-ethyl-1-benzofuran-7-yl]methoxy}-2,3-dimethylphenyl)propanoic acid]
150 nM | CCc1cc2cc(Cl)cc(COc3ccc(CCC(=O)O)c4c3CCC4)c2o1 [Compound 54, 3-{7-[(5-Chloro-2-ethyl-1-benzofuran-7-yl)methoxy]-2,3-dihydro-1H-inden-4-yl}propanoic acid]
